Laboratory results published in publication PMC6152084, “Synthesis of New Hydrazone Derivatives for MAO Enzymes Inhibitory Activity” (Molecules : A Journal of Synthetic Chemistry and Natural …, 2017).
“Also recorded” adds a separate entry of the source. Marks after values point to notes of the source that are not given here.

Legend:
[1] = tested on: Salmonella typhimurium TA98; assay: Ames MPF genotoxicity test, TA98; type: cell-based; conditions: for mutagenicity classification against TA98: in the presence and absence of metabolic activation (S9)
Protocol: An Ames MPF assay was performed to investigate the genotoxicity of the compounds 2a and 2b.
The genotoxicity of the compounds was determined by Ames assay as previously described using the Ames MPF 98/100 mutagenicity test sample kit (Xenometrix AG, Allschwil, Switzerland). This test was performed with Salmonella typhimurium strains TA98 (frameshift mutations) and TA100 (base-pair substitutions). Compounds was prepared in six different concentrations (5, 2.5, 1.25, 0.625, 0.3125, 0.156 mg/mL) which was between […] and 5000 µg/mL according to the previous guidelines in DMSO. In order to detect mutagenic potential, test performed with and without Aroclor™-1254 induced male Sprague-Dawley rat liver microsomal enzyme (S9) mix (Xenometrix AG). While the positive control for TA 98 without S9 mix was 2-nitrofluorene (2 μg/mL), 1 μg/mL of 2-aminoanthracene was positive control with S9 against TA 98. For TA100, 4-nitroquinoline N-oxide (0.1 μg/mL) was positive control without S9 mix and 2.5 μg/mL of 2-aminoanthracene was positive control. 4% DMSO solution was the solvent control. At the end of the experiment, revertant bacteria decreased the pH of solution and indicator medium colour was changed to yellow. Yellow wells were counted as positive and compared with the negative control. Fold induction over the negative control and fold induction over the baseline were calculated. Fold induction over the negative control is the ratio of the mean number of positive wells for the dose concentration divided by the mean number of positive wells for the zero dose (negative) control. Fold induction over the baseline is the ratio of the mean number of positive wells for the dose concentration divided by zero dose baseline. The zero dose baseline is obtained by adding one standard deviation to the mean number of positive wells of the zero dose control. Mutagenity was determined according to the criteria from previous studies. For a baseline value ≤ 3, significant increases between 2 and 3-fold the baseline were classified as weak mutagen, increases ≥ 3-fold the baseline were classified as mutagen. For a baseline was > 3, significant increases between 1.5 and 2.5-fold the baseline were classified as weak mutagen, and increases ≥ 2.5-fold the baseline, were classified as mutagen. In principle, for a mutagenic compound, at least two adjacent doses with significant increase or a significant increase at the highest dose level should be observed. All doses were compared according to Student’s t-test at p < 0.05 as statistically.

[2] = biological target: T1, hMAO-B (Homo sapiens, UniProt P27338); assay: MAO-B inhibition assay (in vitro fluorometric Amplex Red method); type: biochemical; conditions: for inhibition at 1000 µM: 10^−3 M; for inhibition at 100 µM: 10^−4 M
T1 construct: purchased Sigma-Aldrich (Steinheim, Germany)
T1 sequence (P27338 1-520): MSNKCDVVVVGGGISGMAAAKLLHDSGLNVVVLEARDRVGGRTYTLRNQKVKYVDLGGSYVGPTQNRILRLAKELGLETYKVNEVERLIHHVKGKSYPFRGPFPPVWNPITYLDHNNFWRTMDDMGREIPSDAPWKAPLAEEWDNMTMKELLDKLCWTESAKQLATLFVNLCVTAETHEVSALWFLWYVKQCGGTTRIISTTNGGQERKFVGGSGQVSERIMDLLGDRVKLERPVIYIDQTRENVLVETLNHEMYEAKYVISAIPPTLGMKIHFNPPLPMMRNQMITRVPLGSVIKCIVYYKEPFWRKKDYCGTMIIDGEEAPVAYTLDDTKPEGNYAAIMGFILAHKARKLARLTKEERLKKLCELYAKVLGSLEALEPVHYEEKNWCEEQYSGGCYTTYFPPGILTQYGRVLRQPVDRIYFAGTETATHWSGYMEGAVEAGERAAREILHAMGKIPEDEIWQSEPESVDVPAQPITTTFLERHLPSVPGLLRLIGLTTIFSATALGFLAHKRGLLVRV

[3] = tested on: NIH/3T3 mouse embryonic fibroblast cell line; assay: Cytotoxicity test (MTT assay); type: cell-based; conditions: for IC50: Mus musculus, NIH3T3, MTT, read-out: IC50 against NIH/3T3 cells; for cytotoxicity (in words): at effective concentration against hMAO-A
Protocol: In cytotoxicity test by using NIH/3T3 mouse embryonic fibroblast cell line (ATCC® CRL-1658™, London, UK), firstly NIH/3T3 cells were incubated in the Dulbecco’s Modified Eagle’s Medium (DMEM, Sigma Aldrich, St. Louis, MO, USA). NIH/3T3 cells were plated on 96-well culture plates as 10,000 cells per well and were then treated with the compounds at concentrations ranging from 1000 µM to 0.316 µM (1000, 316, 100, 31.6, 10, 3.16, 1, 0.316 µM). MTT assay was performed as previously described. Dose-response curves were plotted against compound concentrations applied to determine IC50 values.

Row | SMILES | Revertants Fold Increase (Over Baseline) ([1]; TA 98, S9+, 0.156 mg/mL) | Revertants Fold Increase (Over Baseline) ([1]; TA 98, S9+, 0.3125 mg/mL) | Revertants Fold Increase (Over Baseline) ([1]; TA 98, S9+, 0.625 mg/mL) | Revertants Fold Increase (Over Baseline) ([1]; TA 98, S9+, 1.25 mg/mL) | Revertants Fold Increase (Over Baseline) ([1]; TA 98, S9+, 2.5 mg/mL) | Revertants Fold Increase (Over Baseline) ([1]; TA 98, S9+, 5 mg/mL) | Revertants Fold Increase (Over Baseline) ([1]; TA 98, S9−, 0.156 mg/mL) | Revertants Fold Increase (Over Baseline) ([1]; TA 98, S9−, 0.3125 mg/mL) | Revertants Fold Increase (Over Baseline) ([1]; TA 98, S9−, 0.625 mg/mL) | Revertants Fold Increase (Over Baseline) ([1]; TA 98, S9−, 1.25 mg/mL) | Revertants Fold Increase (Over Baseline) ([1]; TA 98, S9−, 2.5 mg/mL) | Revertants Fold Increase (Over Baseline) ([1]; TA 98, S9−, 5 mg/mL) | mutagenicity classification against TA98 [1] | inhibition at 1000 µM [2] [%] | inhibition at 100 µM [2] [%] | IC50 [3] [µM] | cytotoxicity (in words) [3] | Fold-inductions over baseline ([1]; TA98 without S9, all concentrations)
1 | CC1CCCCN1c1ccc(/C=N/Nc2ccccc2)cc1 (stereo not drawn) [Compound 2a, 1-(4-(2-Methypiperidin-1-yl)benzylidene)-2-phenylhydrazine] | 0.92 | 0.83 | 0.58 | 0.75 | 0.75 | 1.17 | 0.42 | 0.08 * | 0.58 | 0.50 | 0.08 * | 0.17 * | non-mutagenic | 35 ± 0.766 | 22.1 ± 0.443 | 930 ± 15.4 | non-cytotoxic; also recorded: not cytotoxic | –
2 | CN1CCN(c2ccc(C=NNc3ccccc3)cc2)CC1 [Compound 2b, 1-(4-(4-Methylpiperazine-1-yl)benzylidene)-2-phenylhydrazine] | 0.85 | – | – | 0.37 | 0.37 | 0.12 | 1.24 * | 0.36 | 0.22 | 0.00 | 0.00 | 0.00 | not classified as a mutagen | 63.7 ± 1.03 | 43 ± 1.2 | 20 ± 1.32 | non-cytotoxic; also recorded: not cytotoxic | ≤ 1.5
